This note sets out measurements from patent US9662327B2 (AGIOS PHARMACEUTICALS, INC, priority 2011, dated 2017).

Molecules are shown by their SMILES.

Chain of IDH1 R132H (O75874 whole entry R132H): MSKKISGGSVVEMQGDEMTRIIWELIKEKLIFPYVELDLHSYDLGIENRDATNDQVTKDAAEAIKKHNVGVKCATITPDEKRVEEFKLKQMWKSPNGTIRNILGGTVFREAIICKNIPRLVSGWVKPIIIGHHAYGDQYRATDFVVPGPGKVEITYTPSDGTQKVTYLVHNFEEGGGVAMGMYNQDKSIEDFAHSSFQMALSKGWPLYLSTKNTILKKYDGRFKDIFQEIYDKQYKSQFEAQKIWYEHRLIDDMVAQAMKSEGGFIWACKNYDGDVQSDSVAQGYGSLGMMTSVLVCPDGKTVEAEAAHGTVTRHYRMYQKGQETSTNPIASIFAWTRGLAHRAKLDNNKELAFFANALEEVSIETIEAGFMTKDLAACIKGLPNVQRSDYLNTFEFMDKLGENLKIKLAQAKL

In the experiment the target is IDH1 R132H (Homo sapiens (Human), UniProt O75874, R132H). The experiment in a line: Assays for IDH1 R132H Inhibitors (NADPH/aKG, resazurin detection). The experiment is classed as biochemical. The settings on record: IDH1 R132H enzyme, Table 2; read-out: IDHR132H Activity. The procedure, abridged:
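Mutant enzyme in 150 mM NaCl, 10 mM MgCl2, 20 mM Tris pH 7.5, 0.03% BSA; compound in DMSO added to substrate mix of 8 uM NADPH and 2 mM aKG. Reaction ran 50 min at room temperature, then resazurin detection mix (30 μM) added for 5 min at room temperature.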
Background: The colour change of resazurin is a common sign of viable cells or microbes.
`Cc1nc2ccccn2c1C(=O)N1CCN(c2nc(C3CC3)c3c(c2C#N)CC(C)(C)OC3)C[C@H]1C(C)C` [Compound 229]: the IC50 was 1000 to 10000 nM.
The value for `C[C@@H]1CN(c2nc(C3CCCCC3)c3c(c2C#N)CCOC3)CCN1S(C)(=O)=O` [Compound 336, (R)-8-cyclohexyl-6-(3-methyl-4-(methylsulfonyl)piperazin-1-yl)-3,4-dihydro-1H-pyrano[3,4-c]pyridine-5-carbonitrile] was 1000 to 10000 nM; that for `CC1(C)Cc2c(C#N)c(N3CCN(C(=O)c4ccoc4)C(c4ccccc4)C3)nc(C3CCCCC3)c2CO1` (stereo not drawn) [Compound 143, 8-cyclohexyl-6-(4-(furan-3-carbonyl)-3-phenylpiperazin-1-yl)-3,3-dimethyl-3,4-dihydro-1H-pyrano[3,4-c]pyridine-5-carbonitrile] was 1000 to 10000 nM; that for `CCCCCNC(=O)N1CCN(c2nc(C3CC3)c3c(c2C#N)CC(C)(C)OC3)C[C@H]1C(C)C` [Compound 327] was 1000 to 10000 nM.
On to `C[C@@H]1CN(c2nc(C3CCCCC3)c3c(c2C#N)CCOC3)CCN1C(=O)c1ccoc1` [Compound 160, (R)-8-cyclohexyl-6-(4-(furan-3-carbonyl)-3-methylpiperazin-1-yl)-3,4-dihydro-1H-pyrano[3,4-c]pyridine-5-carbonitrile], for which the IC50 lay within 1000 to 10000 nM.
The value for `CC[C@@H]1CN(c2nc(C3CC3)c3c(c2C#N)CC(C)(C)OC3)CCN1C(=O)Cc1ccccc1OC` [Compound 295] was 500 to 1000 nM; that for `CC(C)[C@@H]1CN(c2nc(C3CC3)c3c(c2C#N)CC(C)(C)OC3)CCN1C(=O)N(C)C` [Compound 351] was 1000 to 10000 nM; that for `C[C@@H]1CN(c2nc(C3CCCC3)c3c(c2C#N)CC(C)(C)OC3)C[C@H](C)N1C(=O)c1ccoc1` [Compound 146, 8-cyclopentyl-6-((3S,5R)-4-(furan-3-carbonyl)-3,5-dimethylpiperazin-1-yl)-3,3-dimethyl-3,4-dihydro-1H-pyrano[3,4-c]pyridine-5-carbonitrile] was 1000 to 10000 nM.
The value for `COCCN1CCN(c2nc(C3CC3)c3c(c2C#N)CC(C)(C)OC3)C[C@H]1C(C)C` [Compound 369, (R)-8-cyclopropyl-6-(3-isopropyl-4-(2-methoxyethyl)piperazin-1-yl)-3,3-dimethyl-3,4-dihydro-1H-pyrano[3,4-c]pyridine-5-carbonitrile] was 1000 to 10000 nM; that for `CC(C)c1nc(N2CCN(C(=O)c3ccsc3)[C@H](C)C2)c(C#N)c2c1COC(C)(C)C2` [Compound 251, (R)-8-isopropyl-3,3-dimethyl-6-(3-methyl-4-(thiophene-3-carbonyl)piperazin-1-yl)-3,4-dihydro-1H-pyrano[3,4-c]pyridine-5-carbonitrile] was 1000 to 10000 nM; that for `CCC1CN(c2nc(C3CCCCC3)c3c(c2C#N)CCOC3)CCN1C(=O)c1ccoc1` (stereo not drawn) [Compound 175, 8-cyclohexyl-6-(3-ethyl-4-(furan-3-carbonyl)piperazin-1-yl)-3,4-dihydro-1H-pyrano[3,4-c]pyridine-5-carbonitrile] was 1000 to 10000 nM.
The same measure for `C#CCNCC(=O)N1CCN(c2nc(C3CC3)c3c(c2C#N)CC(C)(C)OC3)C[C@H]1C(C)C` [Compound 373, (R)-8-cyclopropyl-6-(3-isopropyl-4-(2-(prop-2-ynylamino)acetyl)piperazin-1-yl)-3,3-dimethyl-3,4-dihydro-1H-pyrano[3,4-c]pyridine-5-carbonitrile]: 1000 to 10000 nM.
Regarding `CC(C)[C@@H]1CN(c2nc(C3CC3)c3c(c2C#N)CC(C)(C)OC3)CCN1C(=O)C1CCOC1` (stereo partly drawn) [Compound 266], the IC50 lay in the range of 500 to 1000 nM.
As for `CC[C@@H]1CN(c2nc(C3CC3)c3c(c2C#N)CC(C)(C)OC3)CCN1C(=O)c1ccoc1` [Compound 235], the IC50 is below 500 nM.
Turning to `CC1CN(c2nc(C3CCCCC3)c3c(c2C#N)CC(C)(C)OC3)CCN1C(=O)c1ccco1` (stereo not drawn) [Compound 168, 8-cyclohexyl-6-(4-(furan-2-carbonyl)-3-methylpiperazin-1-yl)-3,3-dimethyl-3,4-dihydro-1H-pyrano[3,4-c]pyridine-5-carbonitrile], the IC50 was 1000 to 10000 nM.
